Experimental data reported in ChEMBL document CHEMBL4396870, “Pharmacological Chaperones for the Treatment of α-Mannosidosis” (J Med Chem, 2019).
Positions count from the first letter of the chain named.

Tests used:
[1] = test system: T1, Lysosomal alpha-mannosidase (Homo sapiens), O00754 [L565P]; test: Chaperone activity at human Lysosomal alpha-mannosidase L565P mutant transfected in human […] knockout HAP1 cells assessed as enzyme activity enhancement at 20 uM incubated for 96 hrs relative to control
T1 sequence (whole entry): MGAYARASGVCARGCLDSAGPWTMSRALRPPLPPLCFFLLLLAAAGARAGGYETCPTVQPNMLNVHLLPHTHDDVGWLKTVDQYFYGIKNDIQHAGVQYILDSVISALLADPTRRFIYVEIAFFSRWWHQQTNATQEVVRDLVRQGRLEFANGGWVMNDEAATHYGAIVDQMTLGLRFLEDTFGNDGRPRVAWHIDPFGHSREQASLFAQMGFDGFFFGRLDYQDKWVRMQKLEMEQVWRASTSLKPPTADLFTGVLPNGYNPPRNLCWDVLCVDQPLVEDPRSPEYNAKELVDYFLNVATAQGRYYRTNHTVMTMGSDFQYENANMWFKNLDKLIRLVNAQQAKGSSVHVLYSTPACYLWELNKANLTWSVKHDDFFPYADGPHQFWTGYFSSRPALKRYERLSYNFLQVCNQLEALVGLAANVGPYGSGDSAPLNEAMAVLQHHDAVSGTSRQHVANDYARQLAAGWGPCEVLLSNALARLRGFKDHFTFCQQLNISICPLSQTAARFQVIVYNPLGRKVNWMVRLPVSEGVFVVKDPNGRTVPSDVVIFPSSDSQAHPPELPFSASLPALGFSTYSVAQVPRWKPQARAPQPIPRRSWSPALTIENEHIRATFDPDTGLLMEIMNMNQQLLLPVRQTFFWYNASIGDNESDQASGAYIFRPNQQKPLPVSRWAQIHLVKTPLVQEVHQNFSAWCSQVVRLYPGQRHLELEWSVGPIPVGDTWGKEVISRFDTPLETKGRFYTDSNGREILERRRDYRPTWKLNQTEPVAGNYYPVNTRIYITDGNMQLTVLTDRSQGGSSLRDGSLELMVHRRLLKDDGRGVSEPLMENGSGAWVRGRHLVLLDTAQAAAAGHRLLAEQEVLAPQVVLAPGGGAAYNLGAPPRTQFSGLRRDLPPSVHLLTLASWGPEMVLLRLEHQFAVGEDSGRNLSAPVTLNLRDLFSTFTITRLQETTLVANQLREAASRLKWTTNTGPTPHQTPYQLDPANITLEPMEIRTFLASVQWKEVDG

[2] = test system: T2, Lysosomal alpha-mannosidase (Homo sapiens), O00754 [C55F]; test: Chaperone activity at human Lysosomal alpha-mannosidase C55F mutant transfected in human […] knockout HAP1 cells assessed as enzyme activity enhancement at 0.2 uM incubated for 96 hrs relative to control
T2 sequence (whole entry): T1 sequence (whole entry) with C55F, P565L

COC[C@H]1O[C@@H]2O[C@H]3[C@H](OC)[C@@H](OC)[C@@H](O[C@H]4[C@H](OC)[C@@H](OC)[C@@H](O[C@H]5[C@H](OC)[C@@H](OC)[C@@H](O[C@H]6[C@H](OC)[C@@H](OC)[C@@H](O[C@H]7[C@H](OC)[C@@H](OC)[C@@H](O[C@H]8[C@H](OC)[C@@H](OC)[C@@H](O[C@H]1[C@H](OC)[C@H]2OC)O[C@@H]8COC)O[C@@H]7COC)O[C@@H]6COC)O[C@@H]5COCc1cn(CCCCCCN[C@@H]2[C@@H](O)[C@@H](O)[C@H](O)[C@H]5COC(=O)N52)nn1)O[C@@H]4COC)O[C@@H]3COC
Activity [1]: 0% | Activity [2]: 23%

CC(C)(C)OC(=O)NCCCCCCCCCN[C@@H]1[C@@H](O)[C@@H](O)[C@H](O)[C@H]2COC(=O)N21
Activity [1]: 5% | Activity [2]: 13%
